Results reported in patent US20040242687A1, “Thrombus/thrombogenesis inhibitors” (priority 2001, published 2004).
“Also recorded” adds a separate entry of the source. Read-outs that look alike come from different tables or passages of the source.

Columns and labels:
[1] = system: patients with transient cerebral ischemic attack (TIA) / cerebral infarction; settings: for recurrence of TIA / onset or recurrence of cerebral infarction during administration: administration continued for 337 days, single patients, hydrochloride
Protocol: The present invention will be explained according to the following examples in more detail. However, the scope of the invention is not limited to these examples.
A person. They occurred transient cerebral ischemic attack (TIA). From three days after the onset, treatment with 160 mg/day of Cataclot (Ono Pharmaceutical Co., Ltd.) was started and it was continued for 2 weeks.
A person. They occurred TIA.
A person. They occurred TIA. From three days after the onset, treatment with 81 mg/day of Kids Bufferin (Lion Corporation) was started and this treatment was continued for about one month.
(§1) A person. They occurred cerebral infarction.
A person. They occurred cerebral infarction and, ten months after the occurrence of TIA.
as §1
A person. They occurred cerebral infarction. […] From that day of the onset of TIA, they were hospitalized for one week and subjected to intravenous drip containing 1 g of Nicholin H (Takeda Chemical Industries, Ltd.) and administration of 300 mg/day of Panaldine (Daiichi Pharmaceutical Co., Ltd.).
A person. They occurred cerebral infarction. […] They occurred TIA two years after the onset of cerebral infarction. From that day of the onset of TIA, administration of 200 mg/day of Panaldine (Daiichi Pharmaceutical Co., Ltd.) and, in addition, 162 mg/day of Kids Bufferin (Lion Corporation) was started.
A person. They occurred cerebral infarction. […] Immediately after the recurrence, they were treated with fluid for supplementation, urokinase and 300 mg/day of Panaldine (Daiichi Pharmaceutical Co., Ltd.).

[2] = system: stroke, myocardial infarction and vascular death; settings: 142 trials; cited from earlier work

| SMILES | recurrence of TIA / onset or recurrence of cerebral infarction during administration ([1]; 75 mg/day) | recurrence of TIA / onset or recurrence of cerebral infarction during administration ([1]; 150 mg/day) | recurrence of TIA and cerebral infarction during administration ([1]; 150 mg/day, administration continued for 496 days, single patient) | recurrence of TIA / onset or recurrence of cerebral infarction during administration ([1]; 300 mg/day) | reduction ratio of odds concerning stroke, myocardial infarction and vascular death against the control group [2] |
| --- | --- | --- | --- | --- | --- |
| COc1cccc(CCc2ccccc2OCC(CN(C)C)OC(=O)CCC(=O)O)c1.Cl (racemic) [sarpogrelate hydrochloride, (±)-1-[O-[2-(m-methoxyphenyl)ethyl]phenoxy]-3-(dimethylamino)-2-propyl hydrogensuccinate hydrochloride] | neither recurrence of TIA nor onset of cerebral infarction was observed; also recorded: recurrence of TIA and cerebral infarction was not observed | neither recurrence of TIA nor onset of cerebral infarction was observed; also recorded: recurrence of TIA and cerebral infarction was not observed | recurrence of TIA and cerebral infarction was not observed | neither recurrence of TIA nor onset of cerebral infarction was observed; also recorded: recurrence of TIA and cerebral infarction was not observed |  |
| CC(=O)Oc1ccccc1C(=O)O [aspirin] |  |  |  |  | 25% |
